Where two headings read alike, the source gives them in different places.
Assays:
Stage IV cancer = system: Stage IV cancer
Procedure: A ten-year, multi-center cancer study was conducted wherein we recruited a total of 675 Stage IV cancer patients. These patients were treated and closely monitored through four participating medical and naturopathic clinics, with each clinic following standard therapeutic, monitoring and reporting protocols for each patient over a minimum study period of five years. The patients in these studies were all diagnosed by standard diagnostic methods (e.g., using tumor visualization, cytology, biopsy, blood assays for circulating tumor markers, etc.) at the start of the study as having Stage IV cancer, according to conventional diagnostic standards. Cancer types were grouped by primary cancer cytology/histochemistry, patient history and other standard criteria.
Of the 675 enrolled patients, 128 patients entered the study with diagnosed Stage IV breast cancer, 91 with Stage IV colon/rectal cancer, 34 with Stage IV head/neck cancer, 86 with Stage IV lung cancer, 32 with Stage IV non-Hodgkin's lymphoma (NHL), 28 with Stage IV melanoma, 36 with Stage IV ovarian cancer, 37 with Stage IV pancreatic cancer, 76 with Stage IV prostate cancer, 18 with Stage IV renal cancer, 23 with Stage IV sarcoma, and 34 with Stage IV uterine cancer.
Many of the enrolled subjects in this clinical study presented with Stage IV cancer that had persisted for many months, and in many cases years, following a prior Stage IV cancer diagnosis, and after having undergone one or more failed rounds of conventional oncotherapy (typically a combination of surgery, chemotherapy, radiation and/or hormonal therapy as indicated). These subjects are classified as “non-responsive” to conventional oncotherapy. A majority of the remaining study subjects enrolled in our study after an original Stage III or Stage IV cancer diagnosis, followed by conventional oncotherapy prior to the study, and presented at the time of study enrollment with disease progression to Stage IV cancer or with relapse of a prior, treated cancer. These subjects are classified as “treatment resistant” or “refractory” Stage IV cancer patients.
All patients remained throughout the study period in contact with medical providers who maintained regular monitoring of the subject's disease condition (with regular exams, including blood work testing for cancer markers, cytology, CT scans, PET scans, biopsy where indicated, and other diagnostic monitoring). Many of the study patients, while classified as having “treatment-resistant” Stage IV disease, nonetheless continued with some form of conventional oncotherapy (e.g., low dose chemotherapy) as recommended by their oncologist. […] About half of these subjects received conventional dose chemotherapy at some point, while the remainder received “low dose chemotherapy” (e.g., using a 10-15% dosing of a standard chemotherapeutic drug such as a taxane). […] Additionally, patients with breast cancer, ovarian cancer, uterine cancer and prostate cancer remained on any oncologist-prescribed hormonal therapy.
In certain cases, all 15 iv treatments were administered over a consecutive 15-day period, while in others the 15 iv treatments were scheduled over as much as a one-month period to accommodate patient scheduling factors.
All subjects were regularly examined for diagnostic cancer indicators, assessed according to standard methods.

[1] = system: EBV, hepatitis C, CMV and herpes II virus; assay: Viral load assays in treated patients; format: in vivo, human
From the text: These patients were selected as having been diagnosed with a heavy load, chronic viral infection and/or Stage IV cancer. Some of these subjects presented with only viral infection, and some with only Stage IV cancer, whereas a sizeable group of 64 subjects had co-morbid Stage IV cancer attended by a heavy load chronic viral infection. The principal viral subjects in these studies were Epstein Barr virus (EBV), hepatitis C virus, cytomegalovirus (CMV) and herpes virus.
Nagalase levels and viral load were quantified using conventional assays for each patient, before and after successive iv Salicinium® treatments, and after extended oral Salicinium follow-on therapy (using the […] and oral treatment protocol described in Example II, above).

[2] = Stage IV Non-Hodgins Lymphoma, number of patients out of 32 studied
[3] = Stage IV breast cancer, number of patients out of 128 studied
[4] = Stage IV colon/rectal cancer, number of patients out of 91 studied
[5] = Stage IV head/neck cancer, number of patients out of 34 studied
[6] = Stage IV lung cancer, number of patients out of 86 studied
[7] = Stage IV melanoma, number of patients out of 29 studied
[8] = Stage IV non-Hodgkin's lymphoma
[9] = Stage IV ovarian cancer, number of patients out of 36 studied
[10] = Stage IV pancreatic cancer, number of patients out of 37 studied
[11] = Stage IV prostate cancer, number of patients out of 76 studied
[12] = Stage IV renal cancer, number of patients out of 18 studied
[13] = Stage IV sarcoma, number of patients out of 23 studied
[14] = Stage IV uterine cancer, number of patients out of 34 studied

## 4-(beta-D-allopyranosyloxy)-benzaldehyde [Salicinium]
Stage IV cancer; 51 additional patients: ALL, AML, astrocytoma, bladder, CLL, esophageal, gall bladder, stomach, glioblastoma, Hodgkin's, liver, mesothelioma, myeloma, testicular, thyroid, five years
  therapeutic benefit (rates of stable disease, remission and survival) in smaller study groups: significant therapeutic benefits
Stage IV cancer; [2]
  Complete Remission, patient status through end of five year study period: 6
  Not Surviving, patient status through end of five year study period: 15
  Partial Remission, patient status through end of five year study period: 5
  Stable Disease, patient status through end of five year study period: 6
Stage IV cancer; Stage IV breast cancer
  five-year survival rate: 69%
  patients with stable disease or in partial remission at end of five-year study: 53%
Stage IV cancer; Stage IV breast cancer, from 16% (NIH median) to 69%
  increase in five-year survival expectancy versus NIH median: greater than four-fold increase
Stage IV cancer; [3]
  Complete Remission, patient status through end of five year study period: 21
  Not Surviving, patient status through end of five year study period: 39
  Partial Remission, patient status through end of five year study period: 30
  Stable Disease, patient status through end of five year study period: 38
Stage IV cancer; Stage IV breast cancer, of 128 enrolled
  patients in complete remission at end of five-year study: 16%
Stage IV cancer; Stage IV colon/rectal cancer
  patients in total remission: 5%
  patients surviving with stable disease or partial remission: 56%
Stage IV cancer; Stage IV colon/rectal cancer, 91 patients
  total five-year survival percentage: 61%
Stage IV cancer; Stage IV colon/rectal cancer, NIH median 8-15% (average 11.5%)
  survival versus NIH median survival: more than five-times greater
Stage IV cancer; [4]
  Complete Remission, patient status through end of five year study period: 5
  Not Surviving, patient status through end of five year study period: 35
  Partial Remission, patient status through end of five year study period: 15
  Stable Disease, patient status through end of five year study period: 36
Stage IV cancer; Stage IV head/neck cancer
  five-year survival: 53%
  subjects in complete remission: 12%
  subjects stable or in partial remission: 41%
Stage IV cancer; [5]
  Complete Remission, patient status through end of five year study period: 4
  Not Surviving, patient status through end of five year study period: 16
  Partial Remission, patient status through end of five year study period: 0
  Stable Disease, patient status through end of five year study period: 14
Stage IV cancer; Stage IV lung cancer
  five-year survival: 62%
  patients stable or in partial remission: 56%
  total remission rate: 6%
Stage IV cancer; Stage IV lung cancer, NIH median survival 50%
  increase in survival expectancy compared to NIH published data: > 10%
Stage IV cancer; [6]
  Complete Remission, patient status through end of five year study period: 5
  Not Surviving, patient status through end of five year study period: 33
  Partial Remission, patient status through end of five year study period: 10
  Stable Disease, patient status through end of five year study period: 38
Stage IV cancer; Stage IV melanoma
  five-year survival: 52%
Stage IV cancer; Stage IV melanoma, NIH 15-20%, average 17.5%
  increase in patient survival over median survival: about a three-fold increase
Stage IV cancer; [7]
  Complete Remission, patient status through end of five year study period: 0
  Not Surviving, patient status through end of five year study period: 14
  Partial Remission, patient status through end of five year study period: 8
  Stable Disease, patient status through end of five year study period: 7
Stage IV cancer; [8]
  five-year survival: 53%
  subjects in total remission: 19%
  subjects stable or in partial remission: 34%
Stage IV cancer; Stage IV ovarian cancer
  overall five-year survival rate: 55%
  subjects in complete remission at end of study: More than 10%
Stage IV cancer; Stage IV ovarian cancer, NIH median 17%
  survival versus NIH median survival: more than three times
Stage IV cancer; [9]
  Complete Remission, patient status through end of five year study period: 4
  Not Surviving, patient status through end of five year study period: 16
  Partial Remission, patient status through end of five year study period: 5
  Stable Disease, patient status through end of five year study period: 11
Stage IV cancer; Stage IV pancreatic cancer
  five-year survival rate: 46%
Stage IV cancer; Stage IV pancreatic cancer, NIH median 4%
  survival versus median survival expectancy: more than 11 times
Stage IV cancer; [10]
  Complete Remission, patient status through end of five year study period: 0
  Not Surviving, patient status through end of five year study period: 20
  Partial Remission, patient status through end of five year study period: 0
  Stable Disease, patient status through end of five year study period: 17
Stage IV cancer; Stage IV prostate cancer
  five-year survival: 78%
  patients in total disease remission: 20%
  patients surviving in stable or partial remission status: 58%
Stage IV cancer; Stage IV prostate cancer, NIH median 33%
  survival versus NIH published median survival: more than double
Stage IV cancer; [11]
  Complete Remission, patient status through end of five year study period: 15
  Not Surviving, patient status through end of five year study period: 16
  Partial Remission, patient status through end of five year study period: 23
  Stable Disease, patient status through end of five year study period: 22
Stage IV cancer; Stage IV renal cancer
  five-year survival: 56%
  subjects in total remission: 17%
  subjects stable or in partial remission: 39%
Stage IV cancer; [12]
  Complete Remission, patient status through end of five year study period: 3
  Not Surviving, patient status through end of five year study period: 8
  Partial Remission, patient status through end of five year study period: 0
  Stable Disease, patient status through end of five year study period: 7
Stage IV cancer; Stage IV sarcoma
  five-year survival: 48%
  subjects in total remission: 9%
  subjects stable or in partial remission: 39%
Stage IV cancer; [13]
  Complete Remission, patient status through end of five year study period: 2
  Not Surviving, patient status through end of five year study period: 12
  Partial Remission, patient status through end of five year study period: 2
  Stable Disease, patient status through end of five year study period: 7
Stage IV cancer; Stage IV uterine cancer
  five-year survival: 47%
  subjects in total remission: 5%
  subjects stable or in partial remission: 41%
Stage IV cancer; [14]
  Complete Remission, patient status through end of five year study period: 2
  Not Surviving, patient status through end of five year study period: 18
  Partial Remission, patient status through end of five year study period: 4
  Stable Disease, patient status through end of five year study period: 10
[1]; EBV and herpes II subjects, within six months following initial iv treatment
  treated subjects in whom high load viral infection became undetectable: 50%
[1]; EBV, hepatitis C, CMV and herpes II, first month
  drop in median viral loads: 20-25%
[1]; EBV, hepatitis C, CMV and herpes II, within three months after treatment
  additional drop in median viral loads: 20%
[1]; EBV, hepatitis C, herpes virus and CMV, after one year
  viral subjects entirely clear of detectable virus: 87%
